Measurements taken from EP3641564B1, “TASTE MODULATING FLAVORING SUBSTANCES” (Symrise AG, priority 2017, dated 2018).

Assays:
[1] = Sensory panel rating of bitterness reduction of a caffeine solution; assay type: in vivo; settings: for Bitterness rating with test substance (0-100 scale): expert panel mean, rating 0 [nicht bitter] to 100 [extrem bitter]; for % Reduktion des Bitter-Eindrucks (Signifikanz): 500 ppm Coffein, calculated from panel means versus solution without test substance
Source text: (§1) Um die Reduzierung (d.h. die Maskierung oder Verminderung) des Bitter-Eindrucks in einer Probe zu quantifizieren, wurde die Bitterkeit einer Lösung enthaltend 500 ppm Coffein oder 300 ppm Theobromin oder 100 ppm Naringin von einer Expertengruppe jeweils mit einer Probe verglichen, die 500 ppm Coffein oder 300 ppm Theobromin oder 100 ppm Naringin und zusätzlich die jeweils angegebene Menge einer (hinsichtlich der Fähigkeit zur Bitter-Reduzierung) zu beurteilenden Substanz enthielt (Einstufung: 0 [nicht bitter] bis 100 [extrem bitter]). Für die Auswertung, d.h. die Berechnung der Reduktion (in %) des Bittereindrucks wurden jeweils die Durchschnittswerte der Einschätzungen der Expertengruppe verwendet. Die Ergebnisse sind in Tabelle 1 zusammengefasst: Tabelle 1: Bitterreduzierung einer Bitterstofflösung

[2] = Sensory panel rating of bitterness reduction of a theobromine solution; assay type: in vivo
Source text: as §1

[3] = 10 ppm test substance in 500 ppm Coffein solution

Row | SMILES | Bitterness rating with test substance (0-100 scale) [1, 3] | % Reduktion des Bitter-Eindrucks (Signifikanz) ([1]; 10 ppm test substance) | Bitterness rating with test substance (0-100 scale) ([1]; 25 ppm test substance in 500 ppm Coffein solution) | % Reduktion des Bitter-Eindrucks (Signifikanz) ([1]; 25 ppm test substance) | Bitter-Eindruck (0-100) mit Testsubstanz ([2]; 25 ppm test substance in 300 ppm Theobromin solution, expert panel mean, rating 0 [nicht bitter] to 100 [extrem bitter]) | % Reduktion des Bitter-Eindrucks (Signifikanz) ([2]; 25 ppm test substance, 300 ppm Theobromin, calculated from panel means versus solution without test substance)
1 | COc1ccc(C(O)Cc2cccc(O)c2C(=O)O)cc1O (single isomer, unassigned) [Substanz (3), 2-Hydroxy-6-[2-hydroxy-2-(3-hydroxy-4-methoxyphenyl)ethyl]benzoesäure] | 41.25 + 21.83 | 14.0 % (p = 0.29) | 38.85 + 19.19 | 26.5 % (p < 0.05) | 39.76 ± 20.91 | 16.5 % (p = 0.21)
2 | COc1ccc(/C=C/c2cccc(O)c2C(=O)O)cc1O [Substanz (6), 2-Hydroxy-6-[(E)-2-(3-hydroxy-4-methoxyphenyl)vinyl]benzoesäure] | 37.50 ± 18.84 | 18.3 % (p = 0.15) | – | – | – | –
